Measurements as given in patent publication US20260042753A1 (Merck Patent GmbH, priority 2019, published 2026).
Like-named read-outs stand apart in the source and are kept apart here.

What was measured:
c-Kit(V654A) = c-Kit(V654A) (Homo sapiens, UniProt P10721, V654A); assay: c-Kit(V654A) assay; type: biochemical
Method in brief: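 Radiometric filter-binding read-out: after 3% phosphoric acid stop, peptide-incorporated 33P on filtermat scintillation-counted. Enzyme: human c-Kit V654A, residues 544–end, N-terminal GST fusion.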

[1] = biological target: mutant cKIT (560-576 and V654A) in GIST430/654 cell line (Homo sapiens (Human), UniProt P10721, DEL560-576/V654A); assay: Cellular testing of cKIT mutant inhibitors: phospho-Y307-cKIT Luminex assay in GIST430/654 cells; type: cell-based; details: read-out: GIST 430/654 IC50
Method in brief: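 Autophosphorylation of mutant cKIT at Y307 was quantified by a Luminex bead sandwich assay (total-cKIT capture, phosphospecific detection) after 45 min compound exposure in GIST430/654 cells, cultured in medium containing 100 nM imatinib. Signals were normalised to solvent (0.3% DMSO) controls and dose-response curves fitted for IC50.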

[2] = Table 1, cKIT autophosphorylation, compounds 45 min
[3] = Table 2, corresponding triazole derivatives

mutant cKIT (560-576 and V654A) in GIST430/654 cell line, sequence (P10721 other isoform, or with tags, fused parts or gaps V654A/del 1-25/del 560-576 limits assumed): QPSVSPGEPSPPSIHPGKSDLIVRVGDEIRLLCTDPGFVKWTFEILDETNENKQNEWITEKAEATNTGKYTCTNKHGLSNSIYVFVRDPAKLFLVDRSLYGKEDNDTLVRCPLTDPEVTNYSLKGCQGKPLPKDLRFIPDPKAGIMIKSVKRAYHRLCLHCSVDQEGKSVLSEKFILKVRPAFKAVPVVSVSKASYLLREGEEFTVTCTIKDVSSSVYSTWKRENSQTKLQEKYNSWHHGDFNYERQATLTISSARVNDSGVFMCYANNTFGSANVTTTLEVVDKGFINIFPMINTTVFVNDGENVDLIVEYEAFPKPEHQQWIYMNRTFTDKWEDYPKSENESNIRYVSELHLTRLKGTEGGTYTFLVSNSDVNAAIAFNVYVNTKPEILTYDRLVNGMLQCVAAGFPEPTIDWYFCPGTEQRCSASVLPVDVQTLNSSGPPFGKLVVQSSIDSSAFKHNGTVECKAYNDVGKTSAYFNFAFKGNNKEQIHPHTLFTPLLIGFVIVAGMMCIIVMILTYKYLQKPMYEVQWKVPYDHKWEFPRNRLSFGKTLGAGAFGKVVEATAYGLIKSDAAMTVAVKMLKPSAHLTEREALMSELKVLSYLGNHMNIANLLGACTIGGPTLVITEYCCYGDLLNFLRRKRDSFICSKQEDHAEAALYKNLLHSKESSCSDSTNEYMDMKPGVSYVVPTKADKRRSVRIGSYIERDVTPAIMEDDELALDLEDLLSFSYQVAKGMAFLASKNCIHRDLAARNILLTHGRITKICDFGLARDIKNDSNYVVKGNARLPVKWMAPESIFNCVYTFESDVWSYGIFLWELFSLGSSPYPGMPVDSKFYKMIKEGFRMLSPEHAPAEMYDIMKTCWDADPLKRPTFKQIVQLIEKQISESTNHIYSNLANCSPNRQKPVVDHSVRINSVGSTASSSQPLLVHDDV

`COCCOc1cc2[nH]nc(-c3cc(-c4ccc(C(=O)N5CCC6(CN(C)C6)C5)cc4)no3)c2cc1F` [A160, 5-fluoro-6-(2-methoxyethoxy)-3-[3-(4-{2-methyl-2,6-diazaspiro[3.4]octane-6-carbonyl}phenyl)-1,2-oxazol-5-yl]-1H-indazole] gave an IC50 (c-Kit(V654A); Table 1, 200 μM ATP) of 2.5 nM and an IC50 [1, 2] of 170 nM.

For `COCCOc1cc2[nH]nc(-c3cc(-c4nc(C(=O)N5CC(F)C5)cs4)no3)c2cc1F` [A87, 5-fluoro-3-{3-[4-(3-fluoroazetidine-1-carbonyl)-1,3-thiazol-2-yl]-1,2-oxazol-5-yl}-6-(2-methoxyethoxy)-1H-indazole], the IC50 (c-Kit(V654A); Table 1, 200 μM ATP) was 38 nM and the IC50 [1, 2] was 590 nM.

`COCCOc1cc2[nH]nc(-c3cc(-c4ccc(C(=O)N5CCCOCC5)cc4)no3)c2cc1F` [A44, 5-fluoro-6-(2-methoxyethoxy)-3-{3-[4-(1,4-oxazepane-4-carbonyl)phenyl]-1,2-oxazol-5-yl}-1H-indazole] showed an IC50 (c-Kit(V654A); Table 1, 200 μM ATP) of 1.1 nM and an IC50 [1, 2] of 41 nM.

`COCCOc1cc2[nH]nc(-c3cc(-c4ccc(C(=O)N5CC[C@H]5C(C)(C)O)nc4)no3)c2cc1F` [A118, (5-{5-[5-fluoro-6-(2-methoxy-ethoxy)-1H-indazol-3-yl]-isoxazol-3-yl}-pyridin-2-yl)-[(S)-2-(1-hydroxy-1-methyl-ethyl)-azetidin-1-yl]-methanone] was tested, and the IC50 (c-Kit(V654A); Table 1, 200 μM ATP) was 7.1 nM and the IC50 [1, 2] was 640 nM.

`COCCOc1cc2[nH]nc(-c3cc(-c4ccc(C(=O)N5CCN(C6COC6)CC5)cc4)no3)c2cc1Cl` [A194, (4-{5-[5-chloro-6-(2-methoxy-ethoxy)-1H-indazol-3-yl]-isoxazol-3-yl}-phenyl)-(4-oxetan-3-yl-piperazin-1-yl)-methanone] showed an IC50 (c-Kit(V654A); Table 1, 200 μM ATP) of 0.78 nM and an IC50 [1, 2] of 44 nM.

In the case of `COCCOc1cc2[nH]nc(-c3cn(-c4ccc(C(=O)N5CCN(C)CC5)cc4)nn3)c2cc1F` [reference compound], the IC50 (c-Kit(V654A); [3]) is reported as 15 nM and the IC50 [1, 3] is reported as 840 nM.

With `COCCOc1cc2[nH]nc(-c3cc(-c4nc(C(=O)N(C)C)cs4)no3)c2cc1F` [A93, 2-{5-[5-fluoro-6-(2-methoxyethoxy)-1H-indazol-3-yl]-1,2-oxazol-3-yl}-N,N-dimethyl-1,3-thiazole-4-carboxamide] the IC50 (c-Kit(V654A); Table 1, 200 μM ATP) was 53 nM and the IC50 [1, 2] was 390 nM.

Molecule `COCCOc1cc2[nH]nc(-c3cc(-c4ccc(S(=O)(=O)N5CCOCC5)cc4)no3)c2cc1F` [A227, 5-fluoro-6-(2-methoxyethoxy)-3-{3-[4-(morpholine-4-sulfonyl)phenyl]-1,2-oxazol-5-yl}-1H-indazole] has an IC50 (c-Kit(V654A); Table 1, 200 μM ATP) of 3 nM and an IC50 [1, 2] of 170 nM.

`[2H]C1([2H])N(C(=O)c2ccc(-c3cc(-c4n[nH]c5cc(OCCOC)c(F)cc45)on3)cc2)C([2H])([2H])C([2H])([2H])N(C2COC2)C1([2H])[2H]` [A233, 5-fluoro-6-(2-methoxyethoxy)-3-(3-{4-[4-(oxetan-3-yl)(2,2,3,3,5,5,6,6-^2H8)piperazine-1-carbonyl]phenyl}-1,2-oxazol-5-yl)-1H-indazole] was tested, and the IC50 (c-Kit(V654A); Table 1, 200 μM ATP) was 1 nM and the IC50 [1, 2] was 76 nM.

`COCCOc1cc2[nH]nc(-c3cc(-c4ccc(C(=O)N5CC(c6ccncn6)C5)cc4)no3)c2cc1F` [A172, 5-fluoro-6-(2-methoxyethoxy)-3-(3-{4-[3-(pyrimidin-4-yl)azetidine-1-carbonyl]phenyl}-1,2-oxazol-5-yl)-1H-indazole] showed an IC50 (c-Kit(V654A); Table 1, 200 μM ATP) of 0.89 nM and an IC50 [1, 2] of 54 nM.

`COCCOc1cc2[nH]nc(-c3cc(-c4ccc(C(=O)N5CC[C@H]5C(C)(C)O)cc4)no3)c2cc1F` [A59, 2-[(2S)-1-(4-{5-[5-fluoro-6-(2-methoxyethoxy)-1H-indazol-3-yl]-1,2-oxazol-3-yl}benzoyl)azetidin-2-yl]propan-2-ol] was tested, and the IC50 (c-Kit(V654A); Table 1, 200 μM ATP) was 0.51 nM and the IC50 [1, 2] was 33 nM.
